The source of these data is patent US9481688B2, “(Thieno[2,3-b][1,5]benzoxazepin-4-yl)piperazin-1-yl compounds as dual activity H1 inverse agonists/5-HT2A antagonists” (Eli Lilly and Company, priority 2011, dated 2016).

The structures appear in SMILES notation. Structures can show the parent of a compound that is named as a salt.

Series [1] in a line: Plasma clearance in dog (intravenous). The conditions noted are these: male, Beagle, 1 mg/kg. The class given is in vivo. As for the experimental part:
Male Beagle dogs (body weight range 10-12 kg) are obtained from Marshall Bioresources, USA. Test compound is administered intravenously in solution (1 mL/kg) in 20% Captisol® in 22.5 mM phosphate buffer, pH 2, at a final drug concentration of 1.0 mg/mL (free base equivalents). Blood samples are obtained from the jugular vein over 24 hr. Samples of plasma are obtained by centrifugation and stored frozen (−20° C.) prior to analysis.
(§1) Frozen plasma samples are thawed to room temperature for bioanalysis of concentrations of test compound. A related internal standard compound in acetonitrile/methanol (1:1, v/v) is added to all samples of plasma (1:1, v/v). The samples are centrifuged to remove precipitated protein prior to analysis. The supernatants are analysed by injection and rapid gradient elution on a Javelin Betasil C18 column (20×2.1 mm cartridge, Mobile phase A: Water/1 M NH4HCO3, 2000:10 v/v, Mobile Phase B: MeOH/1 M NH4HCO3, 2000:10 v/v). The eluted analytes are detected by LC-MS-MS analysis using a Sciex API 4000 triple quadrupole mass spectrometer. Concentrations of compound are determined from standards prepared and analysed under identical conditions. Clearance is calculated using non-compartmental analysis in Watson 7.4, Thermo Fisher Scientific, Inc.

Another series addresses Dopamine D3 (Homo sapiens (Human), UniProt P35462). In words: Dopamine D3 binding. The note with it: dihydrochloride. An excerpt:
(§2) Further, the compounds of the invention may be tested in binding assays and functional activity assays by well known methods for other physiologically important receptors such as, but not limited to, the hERG channel, other serotonin receptors (specifically 5-HT1B, 5-HT1D, receptors, lack of agonist activity at 5-HT2B receptors, 5-HT2C, 5-HT5, 5-HT6, and 5-HT7 receptors), dopaminergic receptors (specifically D1, D2, and D3), GABAA receptors, adrenergic receptors and monoamine transporters.

The next series addresses 5-HT2B (Homo sapiens (Human), UniProt P41595). In words: 5-HT2B binding.
Text: as §2

A short description of series [2]: Plasma clearance in rat (intravenous). The class given is in vivo. The conditions noted are these: 1 mg/kg, dihydrochloride. As for the experimental part: Male Sprague Dawley rats (body weight range 250-320 g) with indwelling femoral arterial cannulae are obtained from Charles River, Wilmington, Mass. 01887, USA. Test compound is administered intravenously in solution (1 mL/kg) in 20% Captisol® in 22.5 mM phosphate buffer, pH 2, at a final drug concentration of 1.0 mg/mL (free base equivalents). Blood samples are obtained using the indwelling cannula over 24 hr. Samples of plasma are obtained by centrifugation and stored frozen (−20° C.), or on dry ice, prior to analysis.
as §1

In series [3] the target is T1, human recombinant H1 receptor (Homo sapiens (Human), UniProt P35367). Briefly: H1 competition binding assay ([3H]-Pyrilamine, SPA). The conditions noted are these: dihydrochloride. As for the experimental part:
[^3H]-Pyrilamine binding experiments are carried out in SPA (scintillation proximity assay) 96-well format. Membranes used in this assay are prepared from HEK-293 cells stably expressing recombinant H1 receptor (human). The incubation is initiated by the addition of a mixture of WGA PVT SPA beads (1 mg/well, Perkin Elmer (MA, USA) RPNQ0001) and 3 μg membranes to assay buffer (67 mM Tris; pH 7.6) containing 3.5 nM [^3H]-Pyrilamine and varying concentrations of the test compound (10 point concentration response curves). Non-specific binding is determined in the presence of 10 μM Triprolidine. Samples are incubated for 4 hr. at room temperature (22° C.) and then read in a Microbeta Trilux.
Curves are evaluated using a 4-parameter logistic nonlinear equation to obtain the concentration of competitor causing 50% inhibition of radioligand binding (IC50). Equilibrium dissociation constants (Ki) are calculated according to the equation Ki=IC50/(1+L/Kd), where L equals the concentration of radioligand used in the experiment and Kd equals the equilibrium dissociation constant of the radioligand for the receptor, determined from standard saturation analysis or homologous competition experiments. Reported values for Ki, where n values are indicated, are shown as geometric mean±the standard error of the mean (SEM), with the number of replicate determinations indicated by n. […]

The target in series [4] is T1, human recombinant H1 receptor. Briefly: H1 inverse agonism (IP1 accumulation in HEK293/hm H1 cells). It counts as cell-based. The note with it: n=2.
In another series the target is Adrenergic alpha1B (Homo sapiens (Human), UniProt P35368). In words: Adrenergic alpha1B binding.
Text: as §2

The target in the next series is 5-HT1D (Homo sapiens (Human), UniProt P28221). In words: 5-HT1D binding.
Text: as §2

The target of another series is 5-HT5 (Homo sapiens (Human), UniProt P47898). Briefly: 5-HT5 binding.
Text: as §2

The next series concerns the target 5-HT1B (Homo sapiens (Human), UniProt P28222). In words: 5-HT1B binding.
Text: as §2

The next series concerns the target Adrenergic alpha1A (Homo sapiens (Human), UniProt P35348). Briefly: Adrenergic alpha1A binding.
Text: as §2

T1 sequence (P35367 whole entry): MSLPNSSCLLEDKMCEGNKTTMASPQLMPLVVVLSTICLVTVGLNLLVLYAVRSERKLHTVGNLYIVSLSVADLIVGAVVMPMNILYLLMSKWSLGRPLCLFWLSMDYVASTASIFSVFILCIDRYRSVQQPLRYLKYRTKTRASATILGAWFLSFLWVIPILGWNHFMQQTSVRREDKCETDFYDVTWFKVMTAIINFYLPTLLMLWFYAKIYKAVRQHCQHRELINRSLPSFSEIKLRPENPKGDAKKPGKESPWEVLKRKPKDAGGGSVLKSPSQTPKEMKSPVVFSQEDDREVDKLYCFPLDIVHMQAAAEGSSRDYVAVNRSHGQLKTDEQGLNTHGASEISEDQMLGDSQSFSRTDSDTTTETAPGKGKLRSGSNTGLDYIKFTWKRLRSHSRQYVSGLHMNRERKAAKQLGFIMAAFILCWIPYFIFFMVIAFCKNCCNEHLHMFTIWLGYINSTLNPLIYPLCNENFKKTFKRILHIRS
Chain of Dopamine D3 (P35462 whole entry): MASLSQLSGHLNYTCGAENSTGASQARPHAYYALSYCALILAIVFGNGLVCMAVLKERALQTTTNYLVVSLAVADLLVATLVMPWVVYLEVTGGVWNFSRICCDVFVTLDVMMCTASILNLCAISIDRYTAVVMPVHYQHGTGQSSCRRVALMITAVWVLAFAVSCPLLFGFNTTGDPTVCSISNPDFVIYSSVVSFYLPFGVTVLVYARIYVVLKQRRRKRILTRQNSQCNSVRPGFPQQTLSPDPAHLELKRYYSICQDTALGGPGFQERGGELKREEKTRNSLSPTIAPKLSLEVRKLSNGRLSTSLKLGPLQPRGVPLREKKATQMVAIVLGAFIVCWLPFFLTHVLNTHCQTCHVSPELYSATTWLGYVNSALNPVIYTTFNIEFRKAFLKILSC
Chain of 5-HT1B (P28222 whole entry, species assumed): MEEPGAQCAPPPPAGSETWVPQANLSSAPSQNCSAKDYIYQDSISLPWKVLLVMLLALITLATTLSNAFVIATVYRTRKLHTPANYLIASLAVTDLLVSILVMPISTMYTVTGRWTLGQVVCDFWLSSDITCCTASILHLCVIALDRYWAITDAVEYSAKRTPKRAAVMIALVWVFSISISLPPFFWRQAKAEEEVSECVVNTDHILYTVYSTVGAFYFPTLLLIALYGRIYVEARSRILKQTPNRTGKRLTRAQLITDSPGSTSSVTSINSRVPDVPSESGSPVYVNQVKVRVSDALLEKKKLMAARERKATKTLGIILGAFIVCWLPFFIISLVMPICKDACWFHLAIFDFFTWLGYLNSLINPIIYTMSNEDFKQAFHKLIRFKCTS
Chain of Adrenergic alpha1A (P35348 whole entry): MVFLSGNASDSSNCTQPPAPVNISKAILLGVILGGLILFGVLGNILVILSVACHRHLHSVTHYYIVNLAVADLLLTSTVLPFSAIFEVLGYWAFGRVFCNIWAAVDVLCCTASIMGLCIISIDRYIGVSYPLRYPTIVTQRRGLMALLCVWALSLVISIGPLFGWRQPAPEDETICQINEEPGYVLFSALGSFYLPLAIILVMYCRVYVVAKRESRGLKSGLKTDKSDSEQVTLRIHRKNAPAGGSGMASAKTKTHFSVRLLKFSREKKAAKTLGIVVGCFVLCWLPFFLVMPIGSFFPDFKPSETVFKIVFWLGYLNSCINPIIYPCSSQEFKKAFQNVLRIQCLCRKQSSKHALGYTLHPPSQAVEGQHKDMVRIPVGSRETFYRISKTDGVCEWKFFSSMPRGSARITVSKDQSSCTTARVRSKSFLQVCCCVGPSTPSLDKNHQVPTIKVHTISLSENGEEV
Chain of Adrenergic alpha1B (P35368 whole entry): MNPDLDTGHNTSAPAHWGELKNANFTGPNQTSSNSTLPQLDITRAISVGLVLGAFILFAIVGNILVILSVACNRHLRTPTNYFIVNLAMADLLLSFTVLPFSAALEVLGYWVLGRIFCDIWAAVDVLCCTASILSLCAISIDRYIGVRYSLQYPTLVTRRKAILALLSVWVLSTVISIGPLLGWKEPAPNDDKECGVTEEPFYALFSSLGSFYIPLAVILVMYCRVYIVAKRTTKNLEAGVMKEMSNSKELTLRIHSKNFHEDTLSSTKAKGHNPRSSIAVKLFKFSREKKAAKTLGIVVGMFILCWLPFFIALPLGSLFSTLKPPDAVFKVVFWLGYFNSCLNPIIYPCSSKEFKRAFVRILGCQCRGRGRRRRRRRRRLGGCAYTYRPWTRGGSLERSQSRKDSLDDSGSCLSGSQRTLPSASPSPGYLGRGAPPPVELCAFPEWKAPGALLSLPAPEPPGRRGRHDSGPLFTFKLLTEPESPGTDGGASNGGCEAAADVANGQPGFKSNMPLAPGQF
Chain of 5-HT5 (P47898 whole entry, species assumed): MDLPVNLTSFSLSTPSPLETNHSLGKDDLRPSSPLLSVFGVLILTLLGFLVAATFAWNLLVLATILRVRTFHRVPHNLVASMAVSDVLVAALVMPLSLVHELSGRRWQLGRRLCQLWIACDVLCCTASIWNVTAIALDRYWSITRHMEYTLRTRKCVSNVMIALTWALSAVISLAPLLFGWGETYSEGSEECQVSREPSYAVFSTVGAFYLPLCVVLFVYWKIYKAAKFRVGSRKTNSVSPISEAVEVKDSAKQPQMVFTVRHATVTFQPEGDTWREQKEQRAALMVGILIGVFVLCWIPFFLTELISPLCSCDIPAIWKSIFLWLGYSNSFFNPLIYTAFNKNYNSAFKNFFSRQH
Chain of 5-HT2B (P41595 whole entry, species assumed): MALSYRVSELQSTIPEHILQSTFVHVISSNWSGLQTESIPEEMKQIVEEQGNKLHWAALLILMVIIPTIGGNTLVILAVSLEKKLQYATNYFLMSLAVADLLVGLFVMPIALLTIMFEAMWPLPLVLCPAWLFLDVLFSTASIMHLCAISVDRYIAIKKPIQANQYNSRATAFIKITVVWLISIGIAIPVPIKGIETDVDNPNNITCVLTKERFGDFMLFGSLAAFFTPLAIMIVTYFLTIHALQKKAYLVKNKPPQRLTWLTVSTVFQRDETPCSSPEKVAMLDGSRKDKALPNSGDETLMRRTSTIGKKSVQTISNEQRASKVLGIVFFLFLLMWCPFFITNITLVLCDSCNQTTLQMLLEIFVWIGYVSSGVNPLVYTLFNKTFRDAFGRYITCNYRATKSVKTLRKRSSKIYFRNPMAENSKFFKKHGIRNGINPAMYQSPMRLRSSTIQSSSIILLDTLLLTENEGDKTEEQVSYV
Chain of 5-HT1D (P28221 whole entry, species assumed): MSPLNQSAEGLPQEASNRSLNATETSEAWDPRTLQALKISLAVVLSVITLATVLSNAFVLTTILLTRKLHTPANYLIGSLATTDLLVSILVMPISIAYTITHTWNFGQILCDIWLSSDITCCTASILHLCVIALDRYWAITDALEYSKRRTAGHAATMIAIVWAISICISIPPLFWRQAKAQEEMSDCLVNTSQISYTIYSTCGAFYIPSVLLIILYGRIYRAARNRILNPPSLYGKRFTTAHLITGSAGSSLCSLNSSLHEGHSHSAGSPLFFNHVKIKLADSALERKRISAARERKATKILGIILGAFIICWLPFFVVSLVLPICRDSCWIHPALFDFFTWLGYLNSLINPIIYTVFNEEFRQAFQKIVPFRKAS

Take `Cc1ccc2c(c1)Oc1sc(Cl)cc1C(N1CCN(CC(C)(C)C(=O)O)CC1)=N2` [Example 3, 3-[4-(2-chloro-8-methyl-thieno[2,3-b][1,5]benzoxazepin-4-yl)piperazin-1-yl]-2,2-dimethyl-propanoic acid dihydrochloride]: the clearance was 3.2 mL/min/kg in series [1] and 14.5 (+/−1.4, n = 3) mL/min./Kg in series [2]. The Ki at Dopamine D3 was over 5.68 µM; at 5-HT2B, 0.121 µM; in series [3] it was 0.0588 µM; at Adrenergic alpha1B, over 14.7 µM; on 5-HT1D, over 3.98 µM; at 5-HT5 it was over 8.81 µM. For the same molecule, the Ki at 5-HT1B is over 5.58 µM; on Adrenergic alpha1A, over 10.2 µM. Also, the “suppression of constitutive activity (IP1), relative to Tripelennamine” value was found to be 105% in [4] (at 1 μM) and 85% in [4] (at 10 μM).
